Data taken from PubChem BioAssay AID792 (PCMD, 2007).
Results filed as inconclusive are left out. Active and inactive are the calls of the source. The rule behind the calls is not given here.

Molecular target: S. cerevisiae eIF2B mutant, luciferase reporter luminescence
Experiment: potency on yeast eIF2B luminescence signal – S. cerevisiae, mutant, wild-type, growth, dose response (AID 792)
[1] = measured here: mutant yeast growth
[2] = S. cerevisiae wild-type, luminescence

Row | SMILES | IC50 | IC50 [1] | IC50 [2]
1 | COc1ccccc1CC(=O)N1CCN(c2cccc(C(F)(F)F)c2)CC1 | > 100 µM (inactive) | > 100 µM | 
2 | COCC(=O)NC(c1ccccc1)c1ccccc1 | > 100 µM (inactive) | > 100 µM | 
3 | Cc1cc(N)n2nc(-c3ccc(C(C)(C)C)cc3)cc2n1 | inactive | 30.1 µM | 
4 | CCOC(=O)C1CCCN(C(=O)c2cc3c(C)nc4ccccc4c3o2)C1 (stereo not drawn) | > 100 µM (inactive) | > 100 µM | 
5 | CCC(C(=O)NC1CCCC1)N(C(=O)c1snc(C(N)=O)c1N)c1ccc2c(c1)OCCO2 (stereo not drawn) | > 100 µM (inactive) | > 100 µM | 
6 | Cc1cccc(-n2nnc3cnn(C)c3c2=O)c1 | > 100 µM (inactive) | > 100 µM | 
7 | N#Cc1c(N2CCOCC2)nc(-c2ccco2)c2c1CCCC2 | > 100 µM (inactive) | > 100 µM | 
8 | CCOC(=O)c1nn(-c2cccc(Cl)c2)c2nc(CC(C)C)c(C#N)c(=O)n12 | > 100 µM (inactive) | > 100 µM | 
9 | COc1ccccc1-n1cnnc1SCC(=O)c1cc(C)n(Cc2cccs2)c1C | > 100 µM (inactive) | > 100 µM | 
10 | Cc1ccc(OCCCC(=O)Nc2ccc(S(=O)(=O)Nc3cc(C)on3)cc2)cc1 | > 100 µM (inactive) | > 100 µM | 
11 | CCOCCCNC(=O)C1CCN(c2cc(C)nc3c(-c4ccc(OC)c(OC)c4)c(C)nn23)CC1 | > 100 µM (inactive) | > 100 µM | 
12 | Cc1nc(-c2cccc(S(=O)(=O)N3CC(C)CC(C)C3)c2)cs1 (stereo not drawn) | > 100 µM (inactive) | > 100 µM | 
13 | CCn1ncc(Br)c1C(=O)Nc1sc2c(c1C(N)=O)CCC2 | > 100 µM (inactive) | > 100 µM | 
14 | CCC(Sc1nc2sc(C(=O)OC)c(C)c2c(=O)n1N)C(=O)NCC1CCCO1 (stereo not drawn) | > 100 µM (inactive) | > 100 µM | 
15 | COc1ccc(S(=O)(=O)CCC(=O)N2c3ccccc3CC2C)cc1 (stereo not drawn) | > 100 µM (inactive) | > 100 µM | 
16 | O=C(Oc1ccc2c(c1)CCC2)N1CCOCC1 | > 100 µM (inactive) | > 100 µM | 
17 | CCCC1CC(C)(c2csc(Nc3ccc(OCC)cc3)n2)OC1=O (stereo not drawn) | > 100 µM (inactive) | > 100 µM | 
18 | O=S(=O)(N1CCCCC1)N1CCCN(S(=O)(=O)N2CCCCC2)CC1 | > 100 µM (inactive) | > 100 µM | 
19 | CCOc1ccc(-n2cc(C(=O)N3CCC(C)CC3)c3cc(OC)c(OC)cc3c2=O)cc1 | > 100 µM (inactive) | > 100 µM | 
20 | Cn1ncc(C#N)c1/N=C/N1CCOCC1 | > 100 µM (inactive) | > 100 µM | 
21 | NC(=O)CSC1=Nc2ccccc2C2=NC(CC(=O)NCc3cccs3)C(=O)N12 (stereo not drawn) | > 100 µM (inactive) | > 100 µM | 

Row | SMILES | IC50 | IC50 [1] | IC50 [2]
22 | O=c1c(-c2cc3ccccc3o2)[n+]([O-])c2ccccc2n1OCc1ccccn1 | > 100 µM (inactive) | > 100 µM | 
23 | CCN1CCN(c2cc(-c3ccccc3)nc3cc(-c4cccc(F)c4)nn23)CC1 | inactive | 8.98 µM | 6.87 µM
24 | CNC(=O)CSc1nc(N)c2c3c(sc2n1)CCC3 | > 100 µM (inactive) | > 100 µM | 
25 | COc1ccc(C2NC(=O)NC(C)=C2C(C)=O)cc1 (stereo not drawn) | > 100 µM (inactive) | > 100 µM | 
26 | CCc1cc(=O)oc2cc3oc(C)c(C)c3cc12 | > 100 µM (inactive) | > 100 µM | 
27 | Cc1cc(C)c(C#N)c(SCC(=O)Nc2nnc(-c3ccccc3)s2)n1 | > 100 µM (inactive) | > 100 µM | 
28 | CCOC(=O)C1=C(C)NC(SCc2cc(=O)[nH][nH]2)=C(C#N)C1c1cccs1 (stereo not drawn) | > 100 µM (inactive) | > 100 µM | 
29 | Cc1cc(C(=O)Nc2ccccc2)oc1C | inactive | > 100 µM | 84.2 µM
30 | O=c1c(Cl)c(NCCCO)cnn1-c1nc2ccccc2[nH]1 | inactive | 29.2 µM | 15.9 µM
31 | CC(C)CCNC1=NCCCCC1 | > 100 µM (inactive) | > 100 µM | 
32 | COCCN1CN(S(=O)(=O)c2ccc(Cl)cc2)c2nc3ccccc3nc21 | > 100 µM (inactive) | > 100 µM | 
33 | Cc1cccc(N2C(=O)c3cccnc3C2=O)c1 | > 100 µM (inactive) | > 100 µM | 
34 | Cc1ccc2c(c1)N(CC(=O)NCc1cccnc1)C(=O)CO2 | > 100 µM (inactive) | > 100 µM | 
35 | Cn1c(/N=C/c2c(O)ccc3ccccc23)nc2ccccc21 | > 100 µM (inactive) | > 100 µM | 
36 | CNC(=O)Cn1nc(-c2ccc(C)c(S(=O)(=O)N(C)C)c2)c2ccccc2c1=O | > 100 µM (inactive) | > 100 µM | 
37 | CCCCN(Cc1ccccc1)S(=O)(=O)c1ccc2[nH]c(=O)oc2c1 | > 100 µM (inactive) | > 100 µM | 
38 | CCCOc1ccc(C(=O)N2CCCc3ccccc32)cc1 | > 100 µM (inactive) | > 100 µM | 
39 | O=C(CCSc1nnc(-c2ccco2)o1)Nc1ccc(Cl)cc1 | > 100 µM (inactive) | > 100 µM | 
40 | C=CCn1c(N)cc(=O)nc1SCC(=O)Nc1ccccc1 | > 100 µM (inactive) | > 100 µM | 
41 | O=C(NC1CCCC1)C(c1ccccc1)N(Cc1ccco1)C(=O)Cc1cccs1 (stereo not drawn) | > 100 µM (inactive) | > 100 µM | 
42 | CN(C)CCN1C(=O)C(O)=C(C(=O)c2ccco2)C1c1ccccc1F (stereo not drawn) | > 100 µM (inactive) | > 100 µM | 

Row | SMILES | IC50 | IC50 [1] | IC50 [2]
43 | CC(=C1C(=O)c2ccccc2C1=O)N1CCN(CCN=Cc2c(O)n(C)c(=O)n(C)c2=O)CC1 | > 100 µM (inactive) | > 100 µM | 
44 | C=CCOC(=O)C1=C(C)Nc2nc3ccccc3n2C1c1ccncc1 (stereo not drawn) | > 100 µM (inactive) | > 100 µM | 
45 | CCN(CC(N)=O)S(=O)(=O)c1ccc(Br)cc1 | > 100 µM (inactive) | > 100 µM | 
46 | Cc1cc2c(cc1C)CSC(c1ccc(O)cc1)SC2 | > 100 µM (inactive) | > 100 µM | 
47 | CCCCN1C(=O)CN(CCc2ccccc2)C(=O)C1c1ccc(OC)cc1 (stereo not drawn) | > 100 µM (inactive) | > 100 µM | 
48 | Cc1cccc(Cn2cnc3c(nnn3Cc3ccc(Cl)cc3)c2=O)c1 | > 100 µM (inactive) | > 100 µM | 
49 | CCCCCOC(=O)Nc1nnc(CCC)s1 | > 100 µM (inactive) | > 100 µM | 
50 | CC(=O)NC(CCS(C)(=O)=O)C(=O)Nc1ccccc1Cl (stereo not drawn) | > 100 µM (inactive) | > 100 µM | 
51 | C=CCNc1nc(-c2cccc(OC)c2O)nc2ccccc12 | > 100 µM (inactive) | > 100 µM | 
52 | O=C(Nc1ccc2nc(-c3ccc4nc[nH]c4c3)[nH]c2c1)c1cccs1 | > 100 µM (inactive) | > 100 µM | 
53 | COc1cccc(-c2nc(N3CCCCC3C)c3ccccc3n2)c1O (stereo not drawn) | > 100 µM (inactive) | > 100 µM | 
54 | CCCCn1nnnc1SCC(=O)N1CCOCC1 | > 100 µM (inactive) | > 100 µM | 
55 | Cc1cc(C)n(-c2cc(=O)n(C)c(=O)n2C)n1 | > 100 µM (inactive) | > 100 µM | 
56 | O=C(Nc1cccnc1)c1ccccc1Oc1ccccc1 | > 100 µM (inactive) | > 100 µM | 
57 | O=C(Nc1ccc(Sc2ccc(Br)cc2)cc1)c1ccco1 | > 100 µM (inactive) | > 100 µM | 
58 | COC(=O)c1cc(O)c(OCc2ccccc2)c(O)c1 | > 100 µM (inactive) | > 100 µM | 
59 | Cc1cc(C)nc(Nc2n[nH]c(COc3ccc(Cl)cc3)n2)n1 | > 100 µM (inactive) | > 100 µM | 
60 | N#CCN1CCN(CC(=O)Nc2ccc(OCc3ccccc3)cc2)CC1 | > 100 µM (inactive) | > 100 µM | 
61 | Oc1ccccc1C1=Nc2ncnn2C(c2ccc(F)cc2)C1 (stereo not drawn) | > 100 µM (inactive) | > 100 µM | 
62 | CCN(CC)c1ncnc2sc(C(=O)N3CCN(c4ccccc4)CC3)c(C)c12 | > 100 µM (inactive) | > 100 µM | 
63 | CN(C)c1nc(N(C)C)nc(N(C#N)CCOc2ccccc2)n1 | > 100 µM (inactive) | > 100 µM | 

Row | SMILES | IC50 | IC50 [1] | IC50 [2]
64 | Cc1ccc(N2CC(C(=O)Nc3ccccc3C(=O)NC3CCCCC3)CC2=O)cc1C (stereo not drawn) | > 100 µM (inactive) | > 100 µM | 
65 | COc1ccc(NC(=O)N2CCc3ccccc32)cc1 | inactive | > 100 µM | 6.14 µM
66 | O=C(NC1CCCC1)C(c1ccsc1)N(Cc1ccco1)C(=O)Cc1cccs1 (stereo not drawn) | > 100 µM (inactive) | > 100 µM | 
67 | C=CCc1cccc(CNc2nc3ccccc3n2C(C)C)c1O | > 100 µM (inactive) | > 100 µM | 
68 | O=C1CC(O)(C(F)F)Oc2ccc3ccccc3c21 (stereo not drawn) | > 100 µM (inactive) | > 100 µM | 
69 | COC(=O)Cn1c2ccc(OC)cc2c2nc3ccccc3nc21 | > 100 µM (inactive) | > 100 µM | 
70 | CCOC(=O)N1CCN(C(=O)CN(Cc2ccc(Cl)cc2)S(=O)(=O)c2ccc(C)cc2)CC1 | > 100 µM (inactive) | > 100 µM | 
71 | CN1C(=O)N(C)C(=O)C2(Cc3c(nc4ccccn4c3=O)N3CCc4ccccc4C32)C1=O (stereo not drawn) | > 100 µM (inactive) | > 100 µM | 
72 | COc1cc(NS(=O)(=O)c2ccc3c(c2)n(C)c(=O)n3C)cc(OC)c1 | > 100 µM (inactive) | > 100 µM | 
73 | Cc1csc(NC(=O)NC2(C(F)(F)F)Oc3ccccc3O2)n1 | > 100 µM (inactive) | > 100 µM | 
74 | O=C(Nc1cccnc1)c1noc2c1CCCCC2 | inactive | > 100 µM | 97.3 µM
75 | COc1ccc(S(=O)(=O)N2CCCCC2)cc1C(C)C | > 100 µM (inactive) | > 100 µM | 
76 | CCOc1ccccc1NC(=O)c1ccccc1-c1nc(-c2ccccc2)no1 | > 100 µM (inactive) | > 100 µM | 
77 | COC(=O)c1nn(-c2ccc3c(c2)CCN3C(C)=O)cc1O | inactive | > 100 µM | 3.61 µM
78 | Cc1cc(C(=O)Nc2ccccc2C(F)(F)F)no1 | > 100 µM (inactive) | > 100 µM | 
79 | CCOC(=O)CSC1=Nc2ccccc2C2=NC(CC(=O)NCc3ccccc3)C(=O)N12 (stereo not drawn) | > 100 µM (inactive) | > 100 µM | 
80 | N#Cc1cc2ccccc2nc1SCc1cccnc1 | > 100 µM (inactive) | > 100 µM | 
81 | CCOC(=O)c1c(C)[nH]c(C(=O)Nc2ccc3c(c2)OCO3)c1C | > 100 µM (inactive) | > 100 µM | 
